Values after ≈ are worked out from the molar mass of the structure shown.
What was measured:
Experiment in all cases: Antibacterial activity MIC, two-fold agar dilution
Type in all cases: cell-based
[1] = system: Pseudomonas aeruginosa ATCC 10145; conditions: ATCC10145; Pseudomonas aeruginosa ATCC 10145; Muller-Hinton agar, 37° C., 20 hours; read-out: Antibacterial Activity MIC
How it was run: (§1)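 Compounds were serially diluted two-fold in Muller-Hinton agar, and each plate was spot-inoculated with 2 μl of test strain suspension at 10^7 CFU per ml. Plates were incubated at 37° C. for 20 hours before the MIC was recorded.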

[2] = system: Streptococcus faecalis ATCC 29212; conditions: Enterococcus faecalis, ATCC29212; Streptococcus faecalis ATCC 29212; Muller-Hinton agar, 37° C., 20 hours; read-out: Antibacterial Activity MIC
How it was run: as §1

[3] = system: Bacillus cereus ATCC 11778; conditions: ATCC11778; Bacillus cereus ATCC 11778; Muller-Hinton agar, 37° C., 20 hours; read-out: Antibacterial Activity MIC
How it was run: as §1

[4] = system: Salmonella typhimurium ATCC 14028; conditions: Salmonella enterica; Salmonella typhimurium ATCC 14028; Muller-Hinton agar, 37° C., 20 hours; read-out: Antibacterial Activity MIC
How it was run: as §1

[5] = system: Morganella morganii ATCC 8076h; conditions: ATCC8076H, Muller-Hinton agar, 37° C., 20 hours
How it was run: as §1

[6] = system: Escherichia coli ATCC 10536; conditions: ATCC10536, Muller-Hinton agar, 37° C., 20 hours
How it was run: as §1

[7] = system: Serratia marcescens ATCC 27117; conditions: ATCC27117; Serratia marcescens ATCC 27117; Muller-Hinton agar, 37° C., 20 hours; read-out: Antibacterial Activity MIC
How it was run: as §1

[8] = system: Providencia rettgeri ATCC 9250; conditions: ATCC9250, Muller-Hinton agar, 37° C., 20 hours
How it was run: as §1

[9] = system: Acinetobacter calcoaceticus ATCC 15473; conditions: ATCC15473; Acinetobacter calcoaceticus ATCC 15473; Muller-Hinton agar, 37° C., 20 hours; read-out: Antibacterial Activity MIC
How it was run: as §1

[10] = system: Citrobacter freundii ATCC 8090; conditions: ATCC8090; Citrobacter freundii ATCC 8090; Muller-Hinton agar, 37° C., 20 hours; read-out: Antibacterial Activity MIC
How it was run: as §1

[11] = system: Proteus mirabilis ATCC 25933; conditions: ATCC25933; Proteus mirabilis ATCC 25933; Muller-Hinton agar, 37° C., 20 hours; read-out: Antibacterial Activity MIC
How it was run: as §1

[12] = system: Staphylococcus aureus ATCC 10537; conditions: ATCC10537; Staphylococcus aureus ATCC 10537; Muller-Hinton agar, 37° C., 20 hours; read-out: Antibacterial Activity MIC
How it was run: as §1

[13] = system: Staphylococcus epidermidis ATCC 12228; conditions: ATCC12228; Staphylococcus epidermidis ATCC 12228; Muller-Hinton agar, 37° C., 20 hours; read-out: Antibacterial Activity MIC
How it was run: as §1

[14] = system: Klebsiella pneumoniae ATCC 10031; conditions: ATCC10031; Klebsiella pneumoniae ATCC 10031; Muller-Hinton agar, 37° C., 20 hours; read-out: Antibacterial Activity MIC
How it was run: as §1

[15] = system: Micrococcus luteus ATCC 9341; conditions: ATCC9341; Micrococcus luteus ATCC 9341; Muller-Hinton agar, 37° C., 20 hours; read-out: Antibacterial Activity MIC
How it was run: as §1

[16] = system: Staphylococcus aureus ATCC 6538p; conditions: ATCC6538P; Staphylococcus aureus ATCC 6538p; Muller-Hinton agar, 37° C., 20 hours; read-out: Antibacterial Activity MIC
How it was run: as §1

[17] = system: Enterobacter cloacae ATCC 27508; conditions: ATCC27508; Enterobacter cloacae ATCC 27508; Muller-Hinton agar, 37° C., 20 hours; read-out: Antibacterial Activity MIC
How it was run: as §1

[18] = system: Pseudomonas aeruginosa ATCC 25619; conditions: ATCC25619; Pseudomonas aeruginosa ATCC 25619; Muller-Hinton agar, 37° C., 20 hours; read-out: Antibacterial Activity MIC
How it was run: as §1

[19] = system: Pseudomonas aeruginosa ATCC 27853; conditions: ATCC27853; Pseudomonas aeruginosa ATCC 27853; Muller-Hinton agar, 37° C., 20 hours; read-out: Antibacterial Activity MIC
How it was run: as §1

[20] = system: Shigella sonnei ATCC 11060; conditions: ATCC11060, Muller-Hinton agar, 37° C., 20 hours
How it was run: as §1

[21] = system: Bacillus megaterium ATCC 9885; conditions: Priestia megaterium, ATCC9885; Bacillus megaterium ATCC 9885; Muller-Hinton agar, 37° C., 20 hours; read-out: Antibacterial Activity MIC
How it was run: as §1

[22] = system: Proteus vulgaris ATCC 6059; conditions: ATCC6059; Proteus vulgaris ATCC 6059; Muller-Hinton agar, 37° C., 20 hours; read-out: Antibacterial Activity MIC
How it was run: as §1

[23] = system: Shigella flexneri ATCC 11836; conditions: ATCC11836, Muller-Hinton agar, 37° C., 20 hours
How it was run: as §1

[24] = system: Escherichia coli ATCC 25922; conditions: ATCC25922, Muller-Hinton agar, 37° C., 20 hours
How it was run: as §1

[25] = system: Enterobacter aerogenes ATCC 29751; conditions: Klebsiella aerogenes, ATCC29751; Enterobacter aerogenes ATCC 29751; Muller-Hinton agar, 37° C., 20 hours; read-out: Antibacterial Activity MIC
How it was run: as §1

SMILES	MIC [1] [µg/mL]	MIC [2] [µg/mL]	MIC [3] [µg/mL]	MIC [4] [µg/mL]	MIC [5] [µg/mL]	MIC [6] [µg/mL]	MIC [7] [µg/mL]	MIC [8] [µg/mL]	MIC [9] [µg/mL]	MIC [10] [µg/mL]	MIC [11] [µg/mL]	MIC [12] [µg/mL]	MIC [13] [µg/mL]	MIC [14] [µg/mL]	MIC [15] [µg/mL]	MIC [16] [µg/mL]	MIC [17] [µg/mL]	MIC [18] [µg/mL]	MIC [19] [µg/mL]	MIC [20] [µg/mL]	other results
CCO/N=C(\C(=O)N[C@@H]1C(=O)N2C(C(=O)[O-])=C(CSc3cc(N)[n+](CC)c(N)n3)CS[C@H]12)c1nsc(N)n1 [Compound I-11, (6R,7R)-7-[(Z)-2-(5-amino-1,2,4-thiadiazol-3-yl)-2-(ethoxyimino)acetamido]-3-(2,6-diamino-1-ethylpyrimidinium-4-yl)thiomethyl-3-cephem-4-carboxylate]	2 (≈ 3.44 µM)	8 (≈ 13.8 µM)	128 (≈ 220 µM)	0.063 (≈ 0.108 µM)	0.016 (≈ 0.0276 µM)	0.13 (≈ 0.224 µM)	0.13 (≈ 0.224 µM)	≤ 0.008	4 (≈ 6.89 µM)	0.063 (≈ 0.108 µM)	0.5 (≈ 0.861 µM)	0.5 (≈ 0.861 µM)	0.25 (≈ 0.431 µM)	≤ 0.008	0.016 (≈ 0.0276 µM)	0.5 (≈ 0.861 µM)	≤ 0.008	0.5 (≈ 0.861 µM)	1 (≈ 1.72 µM)	0.25 (≈ 0.431 µM)	MIC [21]: 0.13 µg/mL (≈ 0.224 µM); MIC [22]: 0.5 µg/mL (≈ 0.861 µM); MIC [23]: 0.031 µg/mL (≈ 0.0534 µM); MIC [24]: 0.25 µg/mL (≈ 0.431 µM); MIC [25]: 0.13 µg/mL (≈ 0.224 µM)
CC[n+]1c(SCC2=C(C(=O)[O-])N3C(=O)[C@@H](NC(=O)/C(=N\OC(C)C(=O)O)c4csc(N)n4)[C@H]3SC2)cc(N)nc1N (stereo partly drawn) [Compound I-4, (6R,7R)-7-[(Z)-2-(2-aminothiazol-4-yl)-2-(R,S-carboxyeth-1-oxyimino)acetamido]-3-(2,6-diamino-3-ethylpyrimidinium-4-yl)thiomethyl-3-cephem-4-carboxylate]	2 (≈ 3.21 µM)	> 128	64 (≈ 103 µM)	0.5 (≈ 0.802 µM)	≤ 0.008	0.13 (≈ 0.208 µM)	0.13 (≈ 0.208 µM)	≤ 0.008	4 (≈ 6.41 µM)	0.13 (≈ 0.208 µM)	0.31 (≈ 0.497 µM)	4 (≈ 6.41 µM)	1 (≈ 1.6 µM)	0.031 (≈ 0.0497 µM)	0.5 (≈ 0.802 µM)	8 (≈ 12.8 µM)	0.016 (≈ 0.0257 µM)	1 (≈ 1.6 µM)	2 (≈ 3.21 µM)	0.25 (≈ 0.401 µM)	MIC [21]: 0.25 µg/mL (≈ 0.401 µM); MIC [22]: 0.063 µg/mL (≈ 0.101 µM); MIC [23]: 0.031 µg/mL (≈ 0.0497 µM); MIC [24]: 0.13 µg/mL (≈ 0.208 µM); MIC [25]: 1 µg/mL (≈ 1.6 µM)
CO/N=C(\C(=O)N[C@@H]1C(=O)N2C(C(=O)[O-])=C(CSc3cc(N)nc(N)[n+]3C)CS[C@H]12)c1csc(N)n1 [Compound I-7, (6R,7R)-7-[(Z)-2-(2-aminothiazol-4-yl)-2-(methoxyimino)acetamido]-3-(2,6-diamino-3-methylpyrimidinium-4-yl)thiomethyl-3-cephem-4-carboxylate]	64 (≈ 116 µM)	> 128	64 (≈ 116 µM)	1 (≈ 1.81 µM)	0.016 (≈ 0.029 µM)	0.13 (≈ 0.236 µM)	0.5 (≈ 0.906 µM)	≤ 0.008	8 (≈ 14.5 µM)	0.25 (≈ 0.453 µM)	0.031 (≈ 0.0562 µM)	1 (≈ 1.81 µM)	0.5 (≈ 0.906 µM)	0.016 (≈ 0.029 µM)	0.063 (≈ 0.114 µM)	2 (≈ 3.63 µM)	0.016 (≈ 0.029 µM)	2 (≈ 3.63 µM)	32 (≈ 58 µM)	0.5 (≈ 0.906 µM)	MIC [21]: 0.13 µg/mL (≈ 0.236 µM); MIC [22]: 0.063 µg/mL (≈ 0.114 µM); MIC [23]: 0.063 µg/mL (≈ 0.114 µM); MIC [24]: 0.13 µg/mL (≈ 0.236 µM); MIC [25]: 0.5 µg/mL (≈ 0.906 µM)
CC[n+]1c(SCC2=C(C(=O)[O-])N3C(=O)[C@@H](NC(=O)/C(=N\OC)c4csc(N)n4)[C@H]3SC2)cc(N)nc1N [Compound I-8, (6R,7R)-7-[(Z)-2-(2-aminothiazol-4-yl)-2-(methoxyimino)acetamido]-3-(2,6-diamino-3-ethylpyrimidinium-4-yl)thiomethyl-3-cephem-4-carboxylate]	32 (≈ 56.6 µM)	> 128	64 (≈ 113 µM)	0.5 (≈ 0.884 µM)	0.016 (≈ 0.0283 µM)	0.063 (≈ 0.111 µM)	0.5 (≈ 0.884 µM)	≤ 0.008	8 (≈ 14.1 µM)	0.13 (≈ 0.23 µM)	0.031 (≈ 0.0548 µM)	1 (≈ 1.77 µM)	0.5 (≈ 0.884 µM)	0.016 (≈ 0.0283 µM)	0.063 (≈ 0.111 µM)	2 (≈ 3.54 µM)	0.016 (≈ 0.0283 µM)	2 (≈ 3.54 µM)	16 (≈ 28.3 µM)	0.5 (≈ 0.884 µM)	MIC [21]: 0.13 µg/mL (≈ 0.23 µM); MIC [22]: 0.063 µg/mL (≈ 0.111 µM); MIC [23]: 0.063 µg/mL (≈ 0.111 µM); MIC [24]: 0.063 µg/mL (≈ 0.111 µM); MIC [25]: 0.5 µg/mL (≈ 0.884 µM)

Reference: patent US5292733A, “Cephalosporin compounds” (Lucky Limited, priority 1991, dated 1994)
